Assay [1] deals with ESR1 transcription (luciferase signal in MVLN cells). Description: Repression of ESR1 transcription, luciferase reporter in MVLN cells. The assay is classed as cell-based. Conditions: Homo sapiens, MVLN, inhibition of luciferase signal in MVLN cells; arithmetic mean. Summed up:
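Luminescence from an ER-driven Vitellogenin A2 element–luciferase reporter was measured after 24 h of treatment of MVLN cells, in duplicate wells. Alamar Blue (2 h, 530/590 nm) served as a cell-density control.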
(Reporter assays use an easily measured gene product as a stand-in for the process of interest.)

Assay [2] concerns the target Recombinant human GST-tagged Kat6b protein (431-end). Description: Kat6b activity assay (TR-FRET, acetylation of biotinylated Histone-H4-derived peptide). The class given is biochemical. Conditions: 30 mins at 22° C., read-out: KAT6B activity assay IC50 [mol/l] (arithmetic mean). As for the experimental part: Kat6b inhibitory activities of the compounds described in the present invention were quantified using a Fluorescence Resonance Energy Transfer (TR-FRET) assay which measures acetylation of a synthetic, biotinylated Histone-H4-derived peptide by the enzyme.
In this case 50 nl DMSO were used instead of compounds. […] IC50 values were determined by regression analysis based on a 4 parameter equation (minimum, maximum, ICM, Hill; Y=Max+(Min−Max)/(1+(X/ICso) Hill) using the Screener Software (Genedata).

Assay [3] has as its target Recombinant human His-tagged Kat6a protein (amino acids 194-810) (Homo sapiens (Human), UniProt Q92794). Put plainly: Kat6a activity assay (TR-FRET, acetylation of biotinylated Histone-H4-derived peptide). The class given is biochemical. Conditions: 60 mins at 22° C., read-out: KAT6A-DPF/HAT domain IC50 [mol/l] (arithmetic mean). In outline: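 TR-FRET read-out of H4 K8 acetylation, using anti-acetyl-K8 antibody and streptavidin acceptor, after anacardic acid stop; IC50 from four-parameter regression normalized to DMSO. Reaction: recombinant human Kat6a aa 194-810 (insect-cell derived), 220 nM H4 1-24 peptide, 600 nM acetyl-CoA, pH 8, 22 °C, 60 min, compounds 0.01-20 μM.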
For orientation: Time-resolved FRET reads energy transfer from a long-lived donor to a nearby acceptor.

Assay [4] has as its system MDA-MB-436 cells. Description: Proliferation assay MDA-MB-436, negative control cell line (Alamar Blue, 144 h). The class given is cell-based. Particulars: Homo sapiens, MDA-MB-436, 144 h, arithmetic mean. Summed up: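 Viability read as Alamar Blue fluorescence (590 nm, 2 h) after 144 h compound exposure at 37 °C, 5% CO2. Cells seeded at 3000 per well in 2.5% FBS DMEM/Ham's F12, dosed a day later over 2.0×10E-9–2.0×10E-5 M in 9 steps with 0.2% DMSO, in triplicate.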

The test system of assay [5] is ZR-75-1 cells. Description: Proliferation assay ZR-75-1 (Alamar Blue, 144 h). The class given is cell-based. Conditions: Homo sapiens, ZR-75-1, 144 h, arithmetic mean, read-out: ZR75-1 proliferation assay, EC50 [M] (arithmetic mean). In outline: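 Alamar Blue fluorescence (590 nm, 2 h reagent step) measured viability after 144 h compound exposure at 37 °C, 5% CO2. Compounds spanned 2.0×10E-5 to 2.0×10E-9 M in 9 dilutions at 0.2% DMSO, in triplicate, added 24 h after plating 3000 cells/well in RPMI 1640 plus 2.5% FBS.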
On the technique in general: Alamar Blue is a resazurin reagent that responds to reducing activity.

The results in this text go back to patent US12357603B2, “Acyl sulfonamides for treating cancer” (Bayer Aktiengesellschaft, priority 2019, dated 2025).

Some results are limits rather than exact numbers.

Chain of Recombinant human His-tagged Kat6a protein (amino acids 194-810) (Q92794 194-810): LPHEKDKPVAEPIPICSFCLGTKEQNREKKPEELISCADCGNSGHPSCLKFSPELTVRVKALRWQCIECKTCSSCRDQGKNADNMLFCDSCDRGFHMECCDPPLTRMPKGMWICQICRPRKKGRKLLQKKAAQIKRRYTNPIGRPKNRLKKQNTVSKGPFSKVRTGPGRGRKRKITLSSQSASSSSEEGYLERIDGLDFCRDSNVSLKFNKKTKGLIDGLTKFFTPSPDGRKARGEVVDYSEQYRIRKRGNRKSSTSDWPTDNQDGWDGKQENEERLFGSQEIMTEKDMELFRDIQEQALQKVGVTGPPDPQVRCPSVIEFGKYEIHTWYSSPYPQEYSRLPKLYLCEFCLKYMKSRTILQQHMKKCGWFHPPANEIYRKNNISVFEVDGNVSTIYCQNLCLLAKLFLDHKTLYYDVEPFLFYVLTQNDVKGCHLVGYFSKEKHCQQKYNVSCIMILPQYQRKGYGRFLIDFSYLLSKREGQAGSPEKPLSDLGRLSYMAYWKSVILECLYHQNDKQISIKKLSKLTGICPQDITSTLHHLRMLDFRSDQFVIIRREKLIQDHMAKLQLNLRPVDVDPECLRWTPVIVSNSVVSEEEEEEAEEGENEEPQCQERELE

As for `CCCOc1ccc(C)cc1S(=O)(=O)NC(=O)c1cc2ccc(N(C)C)cc2o1` [Example 115, 6-(Dimethylamino)-N-(5-methyl-2-propoxybenzene-1-sulfonyl)-1-benzofuran-2-carboxamide], the IC50 amounted to 64.2 nM in assay [1], 87.2 nM in assay [2] and 64.6 nM in assay [3]. Also, the results for the EC50 in assay [4] and in assay [5] were over 20000 nM and 7.02e-08 M, respectively.

With `CNc1ccc2cc(C(=O)NS(=O)(=O)c3ccccc3-c3ccccc3)oc2c1` [Example 11, 6-(Methylamino)-N-(2-phenylphenyl)sulfonyl-benzofuran-2-carboxamide], the IC50 came to 1930 nM in assay [1], 205 nM in assay [2] and 123 nM in assay [3]. Moreover, the EC50 in assay [4] is over 20000 nM; in assay [5] it was 2.84e-07 M.

For `CN(C)c1cc(F)c2cc(C(=O)NS(=O)(=O)c3ccccc3OC3CC3)oc2c1` [Example 110, N-[2-(Cyclopropyloxy)benzene-1-sulfonyl]-6-(dimethylamino)-4-fluoro-1-benzofuran-2-carboxamide], the IC50 worked out at 12.4 nM in assay [1], 3.82 nM in assay [2] and 7.48 nM in assay [3]. The results for the EC50 in assay [4] and in assay [5] were over 20000 nM and 7.12e-08 M, respectively.

Take `CCCOc1cccc(CC)c1S(=O)(=O)NC(=O)c1cc2ccc(N(C)C)cc2o1` [Example 119, 6-(Dimethylamino)-N-(2-ethyl-6-propoxybenzene-1-sulfonyl)-1-benzofuran-2-carboxamide]: the results for the IC50 in assay [1], in assay [2] and in assay [3] were 218 nM, 374 nM and 185 nM, respectively. Also, the EC50 in assay [4] is over 20000 nM; in assay [5], 6.98e-07 M.

With `O=C(NS(=O)(=O)c1ccccc1-c1ccccc1)c1cc2ccc(N3CCCC3)cc2o1` [Example 45, N-([1,1′-Biphenyl]-2-sulfonyl)-6-(pyrrolidin-1-yl)-1-benzofuran-2-carboxamide], the IC50 in assay [1] was 6450 nM; in assay [2], 1480 nM; in assay [3], 3600 nM. For the same compound, the EC50 in assay [4] is over 20000 nM; in assay [5], 1.19e-05 M.

For `CCN(C)c1ccc2cc(C(=O)NS(=O)(=O)c3ccccc3Cl)oc2c1` [Example 4, N-(2-Chlorophenyl)sulfonyl-6-[ethyl(methyl)amino]benzofuran-2-carboxamide], the IC50 in assay [1] worked out at 2570 nM; in assay [2], 1410 nM; in assay [3], 2700 nM. For the same compound, the EC50 in assay [4] is over 20000 nM; in assay [5], 3.25e-06 M.

As for `CCOc1ccc(C)cc1S(=O)(=O)NC(=O)c1cc2ccc(N(C)C)cc2o1` [Example 67, 6-(Dimethylamino)-N-(2-ethoxy-5-methylbenzene-1-sulfonyl)-1-benzofuran-2-carboxamide], the IC50 in assay [1] came out at 40.2 nM; in assay [2], 118 nM; in assay [3] it was 42.9 nM. In addition, the EC50 was over 20000 nM in assay [4] and 4.08e-08 M in assay [5].

Regarding `CCOc1ccc(I)cc1S(=O)(=O)NC(=O)c1cc2ccc(N(C)C)cc2o1` [Example 78, 6-(Dimethylamino)-N-(2-ethoxy-5-iodobenzene-1-sulfonyl)-1-benzofuran-2-carboxamide], the IC50 was 153 nM in assay [1], 87 nM in assay [2] and 32.7 nM in assay [3]. Also, the EC50 was over 20000 nM in assay [4] and 2.79e-06 M in assay [5].

Consider `Cc1cnc2c(S(=O)(=O)NC(=O)c3cc4ccc(N(C)C)cc4o3)cccc2c1` [Example 87, 6-(Dimethylamino)-N-(3-methylquinoline-8-sulfonyl)-1-benzofuran-2-carboxamide], for which the IC50 in assay [1] came out at 249 nM; in assay [2], 104 nM; in assay [3] it was 97.3 nM. The EC50 in assay [4] is over 20000 nM; in assay [5], 4.18e-07 M.

Turning to `CN(C)c1ccc2cc(C(=O)NS(=O)(=O)c3ccccc3OC(F)F)oc2c1` [Example 79, N-[2-(Difluoromethoxy)benzene-1-sulfonyl]-6-(dimethylamino)-1-benzofuran-2-carboxamide], the IC50 in assay [1] was found to be 164 nM; in assay [2] it was 200 nM; in assay [3], 188 nM. Also, the EC50 in assay [4] is over 20000 nM; in assay [5], 2.22e-07 M.

With `CN(C)c1ccc2cc(C(=O)NS(=O)(=O)c3cc(C(C)(C)C)ccc3OC3CCC3)oc2c1` [Example 182, N-[(5-(tert-butyl)-2-cyclobutoxyphenyl)sulfonyl]-6-(dimethylamino)benzofuran-2-carboxamide], the IC50 in assay [1] is 22 nM; in assay [2] it was 11.9 nM; in assay [3], 2.67 nM. The EC50 is over 20000 nM in assay [4] and 6.1e-08 M in assay [5].

Take `CCOc1ccc(Br)cc1S(=O)(=O)NC(=O)c1cc2c(F)cc(N(C)C)cc2o1` [Example 113, N-(5-Bromo-2-ethoxybenzene-1-sulfonyl)-6-(dimethylamino)-4-fluoro-1-benzofuran-2-carboxamide]: the IC50 in assay [1] turned out to be 70.3 nM; in assay [2] it was 7.24 nM; in assay [3], 7.25 nM. Also, the EC50 is over 20000 nM in assay [4] and 1.02e-07 M in assay [5].

As to `CN(C)c1ccc2cc(C(=O)NS(=O)(=O)c3ccccc3OCC(F)F)oc2c1` [Example 75, N-[2-(2,2-Difluoroethoxy)benzene-1-sulfonyl]-6-(dimethylamino)-1-benzofuran-2-carboxamide], the IC50 in assay [1] stood at 130 nM; in assay [2], 246 nM; in assay [3], 163 nM. For the same compound, the figures for the EC50 in assay [4] and in assay [5] were over 20000 nM and 1.65e-07 M, respectively.

As to `CCOc1cccc(Br)c1S(=O)(=O)NC(=O)c1cc2ccc(N(C)C)cc2o1` [Example 121, N-(2-Bromo-6-ethoxybenzene-1-sulfonyl)-6-(dimethylamino)-1-benzofuran-2-carboxamide], the IC50 in assay [1] turned out to be 275 nM; in assay [2], 227 nM; in assay [3], 179 nM. Further, the EC50 is over 20000 nM in assay [4] and 3.56e-07 M in assay [5].

With `CC(C)Oc1cccc(Cl)c1S(=O)(=O)NC(=O)c1cc2ccc(N(C)C)cc2o1` [Example 89, N-{2-chloro-6-[(propan-2-yl)oxy]benzene-1-sulfonyl}-6-(dimethylamino)-1-benzofuran-2-carboxamide], the figures for the IC50 in assay [1], in assay [2] and in assay [3] were 279 nM, 172 nM and 131 nM, respectively. Also, the values for the EC50 in assay [4] and in assay [5] were over 20000 nM and 4.45e-07 M, respectively.

With `COc1ccccc1S(=O)(=O)NC(=O)c1cc2c(F)cc(N(C)C)cc2o1` [Example 112, 6-(Dimethylamino)-4-fluoro-N-(2-methoxybenzene-1-sulfonyl)-1-benzofuran-2-carboxamide], the IC50 came out at 45.2 nM in assay [1], 18.1 nM in assay [2] and 17.7 nM in assay [3]. Moreover, the EC50 in assay [4] was over 20000 nM; in assay [5], 4.78e-08 M.

For `CN(C)c1ccc2cc(C(=O)NS(=O)(=O)c3ccccc3Oc3ccccc3)oc2c1` [Example 85, 6-(Dimethylamino)-N-(2-phenoxybenzene-1-sulfonyl)-1-benzofuran-2-carboxamide], the results for the IC50 in assay [1], in assay [2] and in assay [3] were 232 nM, 186 nM and 115 nM, respectively. The EC50 is over 20000 nM in assay [4] and 4e-07 M in assay [5].

As for `CCOc1cccc(F)c1S(=O)(=O)NC(=O)c1cc2ccc(N(C)C)cc2o1` [Example 123, 6-(Dimethylamino)-N-(2-ethoxy-6-fluorobenzene-1-sulfonyl)-1-benzofuran-2-carboxamide], the IC50 in assay [1] is 179 nM; in assay [2] it was 257 nM; in assay [3] it was 275 nM. The EC50 in assay [4] is over 20000 nM; in assay [5], 1.19e-07 M.

Turning to `Cc1ccc(S(=O)(=O)NC(=O)c2cc3ccc(N(C)C)cc3o2)cc1` [Example 26, 6-(Dimethylamino)-N-(4-methylbenzene-1-sulfonyl)-1-benzofuran-2-carboxamide], the IC50 in assay [1] is 899 nM; in assay [2], 778 nM; in assay [3], 406 nM. Also, the EC50 in assay [4] is over 20000 nM; in assay [5], 3.89e-07 M.

Take `CCOc1ncccc1S(=O)(=O)NC(=O)c1cc2ccc(N(C)C)cc2o1` [Example 81, 6-(Dimethylamino)-N-(2-ethoxypyridine-3-sulfonyl)-1-benzofuran-2-carboxamide]: the IC50 in assay [1] worked out at 188 nM; in assay [2], 377 nM; in assay [3] it was 320 nM. The values for the EC50 in assay [4] and in assay [5] were over 20000 nM and 4.06e-07 M, respectively.
